Twelve compounds from ChEMBL document CHEMBL1201862, “PubChem BioAssay data set” (2004) can be followed below.

SMILES strings stand for the structures.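 Five concentrations, 48 hours, 96-well plates. GI50 is the concentration that inhibits growth by half.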 Calls of active or inactive are those of the source. No stated cut-off is given here; in the data, active = GI50 up to about 1.1 µM and inactive = higher. Bounds are passed on as bounds.

Among the test systems are HCT-116; RXF 393; DU-145; SK-OV-3; HOP-62; SNB-75; BT-549; COLO 205; ACHN; SK-MEL-5; KM12; SF-539; OVCAR-3; MOLT-4; UACC-257; Hs-578T; NCI-H522; MDA-N; K562.
Holding throughout (assay): DTP human tumour cell line panel, 48 h

As a reminder, the GI50 is the concentration at which growth is held to half of that of the control.

`CC1(C)O[C@@H]([C@H](O)CO)[C@H](O)[C@@H](C2SCCCS2)O1`: the GI50 in the test with HCT-116, with RXF 393, with DU-145, in the test with SK-OV-3, with HOP-62 and in the test on SNB-75 was > 100 µM (inactive) in each case. Also, the GI50 in the test with BT-549, in the test with COLO 205, with ACHN, with SK-MEL-5, with KM12 and in the test on SF-539 was > 100 µM (inactive) throughout. For the same compound, the GI50 in the test on OVCAR-3 was > 100 µM (inactive); in the test on MOLT-4 it was > 10 µM (inactive); in the test on UACC-257, > 100 µM (inactive).

As to `COc1cccc(-c2cc(O)c3cc(N4CCCC4)ccc3n2)c1`, the GI50 with Hs-578T, with HCT-116, in the test on RXF 393, in the test with DU-145, in the test with NCI-H522 and in the test with SK-OV-3 was < 0.001 µM (active) throughout. The GI50 in the test with MDA-N was < 0.001 µM (active); in the test on HOP-62 it was < 0.001 µM (active); in the test on SNB-75, < 0.001 µM (active); with COLO 205, < 0.001 µM (active); in the test with ACHN, 0.00113 µM (active); with SK-MEL-5, < 0.001 µM (active). Moreover, the GI50 with K562, in the test on KM12, with SF-539, with OVCAR-3, in the test on MOLT-4 and in the test with UACC-257 was < 0.001 µM (active) throughout.

In the case of `C=CCNC(=S)N/C=C(\C#N)C(N)=O`, the GI50 in the test with Hs-578T, with HCT-116, in the test on RXF 393, with DU-145, in the test with NCI-H522 and in the test on SK-OV-3 was > 100 µM (inactive) each time. The GI50 with MDA-N, in the test with HOP-62, in the test with SNB-75, in the test with COLO 205, in the test with ACHN and in the test with SK-MEL-5 was > 100 µM (inactive) throughout. The GI50 in the test on K562, in the test on KM12, in the test on SF-539, in the test on OVCAR-3, with MOLT-4 and with UACC-257 was > 100 µM (inactive) in each case.

Consider `COc1cc(C2c3cc4c(cc3OC(NNS(=O)(=O)c3ccc(C)cc3)C2C)OCO4)cc(OC)c1O` (configuration not stated), for which the GI50 is 16.9 µM (inactive) in the test with Hs-578T; 9.44 µM (inactive) in the test on HCT-116; 10.5 µM (inactive) in the test on RXF 393; 33.8 µM (inactive) in the test with DU-145; 25 µM (inactive) in the test with NCI-H522; 11.3 µM (inactive) in the test on SK-OV-3. The GI50 is 5.21 µM (inactive) in the test on MDA-N; 10.4 µM (inactive) with HOP-62; 3.61 µM (inactive) in the test on SNB-75; 19.2 µM (inactive) with COLO 205; 7.98 µM (inactive) in the test on ACHN; 9.75 µM (inactive) with SK-MEL-5. Further, the GI50 in the test with K562 was 4.61 µM (inactive); in the test with KM12, 8.81 µM (inactive); with SF-539 it was 6.53 µM (inactive); in the test with OVCAR-3, 13.7 µM (inactive); in the test on MOLT-4 it was 2.52 µM (inactive); in the test on UACC-257, 5.06 µM (inactive).

For the compound `CSc1nc2[nH]c(=O)c(C)nc2c(=O)[nH]1`, the GI50 with HCT-116, with RXF 393, in the test with NCI-H522, in the test with SK-OV-3, in the test with HOP-62 and with SNB-75 was > 100 µM (inactive) throughout. Besides, the GI50 in the test on COLO 205, with ACHN, in the test on SK-MEL-5, in the test with K562, in the test on KM12 and in the test on OVCAR-3 was > 100 µM (inactive) each time. Moreover, the GI50 in the test on MOLT-4 and in the test on UACC-257 was > 100 µM (inactive) in each case.

On to `N=C(N)NCCN1CC2CCC(CC2)C1`, for which the GI50 in the test on Hs-578T is 91.4 µM (inactive); in the test with HCT-116, > 100 µM (inactive); in the test on RXF 393 it was > 100 µM (inactive); in the test on DU-145 it was > 100 µM (inactive); in the test with NCI-H522 it was > 100 µM (inactive); with SK-OV-3, > 100 µM (inactive). Further, the GI50 with MDA-N was 51.9 µM (inactive); with HOP-62, > 100 µM (inactive); with SNB-75 it was 19.7 µM (inactive); in the test on COLO 205, 93.1 µM (inactive); in the test on ACHN it was > 100 µM (inactive); with SK-MEL-5, 53.2 µM (inactive). In addition, the GI50 in the test on KM12, in the test with SF-539, with OVCAR-3, in the test on MOLT-4 and in the test on UACC-257 was > 100 µM (inactive) each time.

Take `O=C(/C=C/c1ccc(OCCCOc2ccc(/C=C/C(=O)c3ccccc3)cc2)cc1)c1ccccc1`: the GI50 was 77.4 µM (inactive) in the test on HCT-116; > 100 µM (inactive) in the test on RXF 393; > 100 µM (inactive) with HOP-62; 33.4 µM (inactive) in the test on SNB-75; > 100 µM (inactive) with COLO 205; > 100 µM (inactive) with ACHN. The GI50 in the test with SK-MEL-5, in the test on K562, in the test with SF-539, with OVCAR-3, in the test on MOLT-4 and in the test on UACC-257 was > 100 µM (inactive) each time.

Take `COC(=O)C1C(=O)O[C@@H](c2ccc(OC)cc2)C1C(=O)OC` (some centres not stated): the GI50 in the test on HCT-116, with RXF 393, in the test with SK-OV-3, in the test on HOP-62, in the test with SNB-75 and in the test with COLO 205 was > 100 µM (inactive) throughout. Moreover, the GI50 with ACHN, in the test on SK-MEL-5, in the test with K562, in the test with KM12, in the test on SF-539 and in the test on OVCAR-3 was > 100 µM (inactive) in each case. The GI50 with MOLT-4 and with UACC-257 was > 100 µM (inactive) throughout.

For `CNC(=O)CCCNC(=O)CCCCC(=O)N(C)C`, the GI50 in the test with HCT-116, in the test on RXF 393, in the test on DU-145, in the test with NCI-H522, in the test with SK-OV-3 and in the test on MDA-N was > 100 µM (inactive) in each case. The GI50 with HOP-62, with COLO 205, in the test with ACHN, in the test with SK-MEL-5, with K562 and with KM12 was > 100 µM (inactive) in each case. In addition, the GI50 is > 100 µM (inactive) with SF-539, > 100 µM (inactive) in the test on OVCAR-3 and 89.5 µM (inactive) in the test with MOLT-4.

In the case of `Oc1c([Si](c2ccccc2)(c2ccccc2)c2ccccc2)cc2ccccc2c1-c1c(O)c([Si](c2ccccc2)(c2ccccc2)c2ccccc2)cc2ccccc12`, the GI50 in the test on Hs-578T, in the test on RXF 393, with DU-145, with NCI-H522, with SK-OV-3 and in the test on MDA-N was > 100 µM (inactive) in each case. For the same compound, the GI50 is 98.9 µM (inactive) with HOP-62; > 100 µM (inactive) in the test with SNB-75; > 100 µM (inactive) with COLO 205; > 100 µM (inactive) with ACHN; > 100 µM (inactive) with SK-MEL-5; 34.1 µM (inactive) in the test on K562. Moreover, the GI50 in the test with KM12 is > 100 µM (inactive); in the test with SF-539 it was > 100 µM (inactive); in the test with MOLT-4 it was 42.2 µM (inactive); in the test on UACC-257 it was > 100 µM (inactive).

Take `O=c1[nH]c(=S)c2cc3c(=S)[nH]c(=O)n(CCO)c3nc2n1CCO`: the GI50 in the test with HCT-116, with RXF 393, in the test with NCI-H522, in the test on SK-OV-3, in the test with MDA-N and in the test on HOP-62 was > 100 µM (inactive) each time. In addition, the GI50 in the test with SNB-75, with BT-549, in the test with COLO 205, in the test on ACHN, in the test with SK-MEL-5 and in the test with K562 was > 100 µM (inactive) in each case. Further, the GI50 in the test with KM12, in the test on SF-539, in the test with OVCAR-3, in the test with MOLT-4 and with UACC-257 was > 100 µM (inactive) throughout.

Consider `CN(C)CCCN1c2ccc([N+](=O)[O-])cc2CCc2cc([N+](=O)[O-])ccc21`, for which the GI50 with Hs-578T is 15.2 µM (inactive); in the test on HCT-116, 14.4 µM (inactive); in the test with RXF 393, 6.98 µM (inactive); in the test with DU-145 it was 16.6 µM (inactive); with NCI-H522 it was 16.9 µM (inactive); in the test with SK-OV-3, 17.2 µM (inactive). Moreover, the GI50 in the test on MDA-N is 13.8 µM (inactive); with HOP-62, 16 µM (inactive); in the test on SNB-75, 12.3 µM (inactive); in the test on COLO 205 it was 14.9 µM (inactive); with ACHN, 11.4 µM (inactive); in the test with SK-MEL-5, 15.7 µM (inactive). The GI50 was 19.4 µM (inactive) with K562; 14.8 µM (inactive) in the test on KM12; 15.7 µM (inactive) with SF-539; 15.5 µM (inactive) in the test on OVCAR-3; 14.5 µM (inactive) in the test with MOLT-4; 15.2 µM (inactive) in the test with UACC-257.
